We go through two molecules from ChEMBL document CHEMBL4715716, “Discovery of novel non-steroidal reverse indole mineralocorticoid receptor antagonists” (Bioorg Med Chem Lett, 2016).

Type in all cases: ADME, organism-based
Data set [1] is described as follows: Volume of distribution at steady state in rat at 1 mg/kg, iv or 2 mg/kg, po by LC/MS/MS analysis. The note with it: in vivo, read-out: Vdss.
Data set [2] is described as follows: Half life in rat at 1 mg.kg, iv or 2 mg/kg, po by LC/MS/MS analysis. Particulars: in vivo.
A short description of data set [3]: Dose normalized AUC in rat at 2 mg/kg, po by LC/MS/MS analysis. The note with it: in vivo.
Data set [4] can be described thus: Clearance in rat at 1 mg/kg, iv or 2 mg/kg, po by LC/MS/MS analysis. The note with it: in vivo.
Data set [5] is described as follows: Oral bioavailability in rat at 2 mg/kg by LC/MS/MS analysis. Particulars: in vivo.

In general, half-life refers to the time needed for the level to fall by half in the phase considered. Low values mean fast loss, high ones slow loss. As a reminder, the bioavailability is dose-corrected exposure relative to a reference, in per cent. As for `CC[C@](CO)(c1ccc(Cl)cc1)n1ccc2c(NS(C)(=O)=O)cccc21`, the Vd in data set [1] was determined as 4.1 L/kg. Besides, the half-life in data set [2] is 90 min. For the same molecule, the AUC/dose in data set [3] turned out to be 0.67 µM·kg·h/mg. In addition, in data set [4], the clearance is 41 mL/min/kg. For the same molecule, in data set [5], the bioavailability was 65%.

In the case of `CC[C@](C(=O)NC)(c1ccc(Cl)cc1)n1ccc2c(NS(C)(=O)=O)cccc21`, the Vd in data set [1] amounted to 2.8 L/kg. This molecule had a half-life in data set [2] of 36 min. In data set [3], this molecule returned an AUC/dose of 0.13 µM·kg·h/mg. This molecule also displayed a clearance in data set [4] of 67 mL/min/kg. In data set [5], this molecule showed a bioavailability of 21%.
